Assay: xn = mol fraction of the nth substance listed

CC(=O)[O-].CCC[NH3+] + O
298.15 K, 101 kPa
Details | electrical conductivity [S/m]
x1 = 0.0032 | 0.713
x1 = 0.005 | 0.905
x1 = 0.0101 | 1.43
x1 = 0.0169 | 1.47
x2 = 0 | 0.043
x2 = 0.1576 | 0.082
x2 = 0.3525 | 0.165
x2 = 0.5506 | 0.401
x2 = 0.6999 | 0.685
x2 = 0.7885 | 0.937
x2 = 0.8198 | 1.06
x2 = 0.8501 | 1.18
x2 = 0.8849 | 1.34
x2 = 0.9041 | 1.44
x2 = 0.9082 | 1.47
x2 = 0.9305 | 1.59
x2 = 0.9455 | 1.65
x2 = 0.965 | 1.65
x2 = 0.9742 | 1.61

OCCO + CCCC[n+]1ccn(C)c1.O=S(=O)([O-])C(F)(F)F
Details | viscosity [mPa·s]
303.15 K, 100 kPa, x2 = 0 | 13.49

CC[NH2+]CC.O=S(=O)([O-])O + O
Details | viscosity [mPa·s]
298.15 K, 101 kPa, x2 = 0.6088 | 32.1

CC[N+](CC)(CC)CCCS(=O)(=O)O.F[B-](F)(F)F + O
298 K, 101 kPa
Details | electrical conductivity [S/m]
x1 = 0.00077 | 1.03
x1 = 0.002 | 1.68
x1 = 0.01495 | 2.42
x1 = 0.02005 | 2.22

CCCCCC[n+]1ccn(C)c1.O=[N+]([O-])c1cn[n-]c1 + CCCCCCCC[P+](CC)(CC)CC.O=S(=O)([N-]S(=O)(=O)C(F)(F)F)C(F)(F)F
Details | viscosity [mPa·s]
288.15 K, 100 kPa, x2 = 0.1 | 770

CCCCCC[n+]1ccn(C)c1.O=[N+]([O-])c1cn[n-]c1 + CCCCCCCCCCCCCC[P+](CCCCCC)(CCCCCC)CCCCCC.O=S(=O)([N-]S(=O)(=O)C(F)(F)F)C(F)(F)F
Details | viscosity [mPa·s]
283.15 K, 100 kPa, x2 = 0.899 | 820

CC(=O)[O-].CC[NH+](CC)CC + O
298.15 K, 101 kPa
Details | viscosity [mPa·s]
x1 = 0.0288 | 6.32
x1 = 0.042 | 8.12
x1 = 0.0638 | 10.7
x1 = 0.0847 | 13.35
x1 = 0.1016 | 14.91
x1 = 0.1457 | 18.6
x1 = 0.2125 | 23.4
x1 = 0.2349 | 24.4
x1 = 0.2904 | 26.5
x1 = 0.3254 | 27.4
x1 = 0.367 | 27.8
x1 = 0.4174 | 28.2
x1 = 0.5162 | 27.6
x1 = 0.5579 | 26.8
x1 = 0.6055 | 26.1
x1 = 0.6604 | 25.3
x1 = 0.7243 | 24.2
x1 = 0.7996 | 22.9
x1 = 0.8899 | 22.7
x1 = 1 | 24.1

[N-]=C=S.[NH4+] + CCOS(=O)(=O)[O-].CC[n+]1ccn(C)c1
101 kPa
Details | electrical conductivity [S/m] | viscosity [mPa·s]
298.15 K, x1 = 0.0235 | 0.373 | 103.1
298.15 K, x1 = 0.3025 | 0.285 | –
303.15 K, x1 = 0.565 | 0.375 | 172.5
308.15 K, x1 = 0.3025 | 0.439 | 129.6
308.15 K, x1 = 0.4042 | 0.436 | 140.9
313.15 K, x1 = 0.5997 | 0.59 | –
318.15 K, x1 = 0.5205 | 0.656 | 86.9
318.15 K, x1 = 0.565 | 0.728 | 85.3
323.15 K, x1 = 0.565 | 0.868 | 69.75
333.15 K, x1 = 0.0235 | – | 26.54
333.15 K, x1 = 0.3025 | – | 50.29
333.15 K, x1 = 0.4042 | – | 53.18
333.15 K, x1 = 0.5997 | – | 47.67

O=S(=O)([N-]S(=O)(=O)C(F)(F)F)C(F)(F)F.[Li+] + C1COCO1
298.15 K, 100 kPa
Details | electrical conductivity [S/m] | viscosity [mPa·s]
x1 = 8e-07 | 1.3e-05 | –
x1 = 3.74e-06 | 3.1e-05 | –
x1 = 8.82e-06 | 5e-05 | 0.58
x1 = 1.615e-05 | 6.8e-05 | 0.582
x1 = 2.378e-05 | 8.1e-05 | 0.583
x1 = 3.941e-05 | 0.000103 | 0.584
x1 = 8.444e-05 | 0.000138 | 0.585
x1 = 0.0001607 | 0.0002 | 0.588
x1 = 0.0004162 | 0.000398 | 0.589
x1 = 0.0007624 | 0.000536 | 0.591
x1 = 0.001538 | 0.000978 | 0.595
x1 = 0.002969 | 0.00173 | 0.608
x1 = 0.004513 | 0.00309 | 0.629
x1 = 0.005877 | 0.00459 | 0.633
x1 = 0.007354 | 0.00664 | 0.637
x1 = 0.01099 | 0.0164 | 0.661
x1 = 0.0146 | 0.0294 | 0.683
x1 = 0.02174 | 0.0659 | 0.758
x1 = 0.03572 | 0.169 | 0.905
x1 = 0.06897 | 0.446 | 1.388
x1 = 0.08475 | 0.563 | 1.684
x1 = 0.1 | 0.643 | 2.11
x1 = 0.1285 | 0.738 | 3.122
x1 = 0.1563 | 0.744 | 4.4
x1 = 0.1818 | 0.69 | 6.52
x1 = 0.2054 | 0.606 | 9.99
x1 = 0.2273 | 0.512 | 13.96
x1 = 0.2467 | 0.431 | 20.04
x1 = 0.2703 | 0.337 | 30.3

O=S(=O)([N-]S(=O)(=O)C(F)(F)F)C(F)(F)F.[Li+] + CC#N
100 kPa
Details | electrical conductivity [S/m] | viscosity [mPa·s]
293 K, x1 = 0.25 | – | 17.9
303.15 K, x1 = 0.02067 | 2.79 | –
303.15 K, x1 = 0.03069 | 3.23 | –
308.15 K, x1 = 0.03069 | 3.34 | –
308.15 K, x1 = 0.04052 | 3.85 | –
308.15 K, x1 = 0.05013 | 4.25 | –
308.15 K, x1 = 0.07787 | 4.14 | –
313.15 K, x1 = 0.02067 | 3.03 | –
313.15 K, x1 = 0.07787 | 4.35 | –
318.15 K, x1 = 0.04052 | 4.16 | –
318.15 K, x1 = 0.05013 | 4.64 | –
323.15 K, x1 = 0.05957 | 4.97 | –
328.15 K, x1 = 0.05013 | 4.99 | –
328.15 K, x1 = 0.05957 | 5.14 | –
333.15 K, x1 = 0.05957 | 5.28 | –

O=S(=O)([N-]S(=O)(=O)C(F)(F)F)C(F)(F)F.[Li+] + COC(=O)OC + CCC1COC(=O)O1
Details | viscosity [mPa·s]
298.15 K, 100 kPa, x1 = 0.333, x2 = 0.667 | 53.7
